Assay results taken from patent publication US20220249441A1, “Homodimeric Tobramycin Adjuvant Repurposes Novobiocin as an Effective Antibacterial Agent Against Gram-Negative Bacteria” (priority 2019, published 2022).
Read-outs that look alike come from different tables or passages of the source.

Experiments:
MRSA ATCC 33592 = assay: MIC and combination against Gram-positive bacteria; type: cell-based; conditions: Staphylococcus aureus
Description: (§1) Next, we investigated whether tobramycin by itself would potentiate novobiocin against Gram-negative bacteria.
(§2) Antimicrobial Susceptibility Assay. The in vitro antimicrobial activity of all compounds/antibiotics against a panel of bacteria was evaluated by microbroth dilution method in accordance with the Clinical and Laboratory Standards Institute (CLSI) guidelines (using ATCC strains as quality control strains) (54). Overnight grown bacterial cultures were diluted in saline to achieve a 0.5 McFarland turbidity, followed by 1:50 dilution in Mueller-Hinton broth (MHB) for inoculation to a final concentration of approximately 5×10^5 CFU/mL. […] The lowest concentration that prevented the visible growth of bacteria was defined as the MIC for each antimicrobial agent. The broth with or without bacterial cells was used as positive or negative control, respectively.

MRSE 61589 = assay: MIC and combination against Gram-positive bacteria; type: cell-based; conditions: Staphylococcus epidermidis
Description: as §1, §2

E. faecium ATCC 27270 = assay: MIC and combination against Gram-positive bacteria; type: cell-based; conditions: Enterococcus faecium, ATCC27270
Description: as §1, §2

P. aeruginosa = assay: Checkerboard assay (antibiotic + adjuvant combination MIC); type: cell-based, Pseudomonas aeruginosa; conditions: Pseudomonas aeruginosa, read-out: MIC of Novobiocin Alone
A. baumannii = assay: as above; type: cell-based, Acinetobacter baumannii; conditions: Acinetobacter baumannii, read-out: MIC of Novobiocin Alone
Description: as §2
(§3) Checkerboard Assay. Combination studies with different antibiotics were performed in 96-well plates as previously described (19). Briefly, the antibiotic of interest was serially diluted in MHB along the abscissa while the adjuvant (tobramycin homodimer) was serially diluted in MHB along the ordinate. This creates a 10×7 matrices wherein each well consists of a combination of different antibiotic and adjuvant concentrations. Overnight grown bacterial cultures were diluted in saline to achieve a 0.5 McFarland turbidity, followed by 1:50 dilution in Mueller-Hinton broth (MHB) for inoculation to a final concentration of approximately 5×10^5 CFU/mL. […] MIC was recorded as wells with the lowest concentration of drugs with no bacterial growth. The fractional inhibitory concentration (FIC) for each antibiotic was calculated by dividing the MIC of the antibiotic in the presence of adjuvant by the MIC of the antibiotic alone. Similarly, the FIC of adjuvant was calculated by dividing the MIC of the adjuvant in the presence of antibiotic by the MIC of the adjuvant alone. FIC index is the sum of both FICs. FIC indices of ≤0.5 were deemed synergistic; >0.5-4, no interaction; and >4, antagonistic.

A. baumannii ATCC 17978 = assay: microbe, parasite or virus in culture; type: cell-based, Acinetobacter baumannii
Description: Development of Resistance Study. […] Tobramycin and colistin were included as controls. At 24-hour intervals, the cultures were assessed for growth. […] This serial passaging was repeated for 8 days.

P. aeruginosa PAO1 = assay: Time-kill assay; type: cell-based, Pseudomonas aeruginosa; conditions: LB media, novobiocin 32 μg/ml, compound 1 7.1 μM, 24 h
Description: Time-kill Assay. […] At specific time intervals (0, 1, 3, 6, 9, and 24 h), 100 μl was taken from each sample, serially diluted in sterile PBS, plated on LB agar plates, and incubated at 37° C. in a humid 5% CO2-enriched atmosphere. Bacterial colonies were counted after 20 h of incubation.

E. coli = assay: Checkerboard assay (antibiotic + adjuvant combination MIC); type: cell-based, Escherichia coli; conditions: Escherichia coli, read-out: MIC of Novobiocin Alone
Description: as §2, §3

K. pneumoniae = assay: as above; type: cell-based, Klebsiella pneumoniae; conditions: for MIC: Klebsiella pneumoniae, read-out: MIC of Novobiocin Alone
Description: as §2, §3

E. cloacae = assay: as above; type: cell-based, Enterobacter cloacae; conditions: Enterobacter cloacae, read-out: MIC of Novobiocin Alone
Description: as §2, §3

MDR A. baumannii = assay: Galleria mellonella in vivo larvae-infection model; conditions: single dose 100 mg/kg, agent alone; after 24 h
Description: Galleria mellonella In vivo Larvae-Infection Model. In vivo synergistic effects were determined using Galleria mellonella infection model, as previously described (49). Briefly, larvae were purchased from The Worm Lady Live Feeder (ON, Canada), stored in their natural habitat at 16° C., and used within 10 days of delivery. The larvae (average weight of 250 mg) were used for tolerability and efficacy studies. Tolerability study was performed by injecting a 10 μL aliquot of antimicrobial agents only at concentrations equivalent to 100 mg/kg or 200 mg/kg. The larvae (ten in each group) were incubated at 37° C. and monitored for 96 h. For efficacy studies, the virulence and bacterial load required to kill 100% of the larvae within 24 h (with no treatment) was first determined, which is approximately 10 CFU. Overnight grown culture of respective MDR A. baumannii isolate was standardized to 0.5 McFarland standard and diluted in PBS to a final concentration of 10^3 CFU/mL. A 10 μL aliquot of this solution (˜10 CFU) was injected into each larva and incubated for 3 h at 37° C. […] Larvae treated with 10 μL of PBS or high concentrations of test antibiotics served as negative and positive control, respectively. The larvae were incubated at 37° C. in Petri dishes lined with filter paper and scored for survivability every 6 h for up to 36 h. […]

## CO[C@@H]1[C@@H](OC(N)=O)[C@@H](O)[C@H](Oc2ccc3c(O)c(NC(=O)c4ccc(O)c(CC=C(C)C)c4)c(=O)oc3c2C)OC1(C)C [Novobiocin]
MRSA ATCC 33592
  MIC: 0.125 µg/mL
MRSE 61589
  MIC: 0.0625 µg/mL
E. faecium ATCC 27270
  MIC: 2 µg/mL
P. aeruginosa; P. aeruginosa 259-96918
  MIC: 512 µg/mL
P. aeruginosa; P. aeruginosa 260-97103
  MIC: 256 µg/mL
P. aeruginosa; P. aeruginosa 262-101856
  MIC: 512 µg/mL
P. aeruginosa; P. aeruginosa 264-104354
  MIC: 512 µg/mL
P. aeruginosa; P. aeruginosa 91433
  MIC: 16 µg/mL
P. aeruginosa; P. aeruginosa 100036
  MIC: 1020 µg/mL
P. aeruginosa; P. aeruginosa 101243
  MIC: 128 µg/mL
P. aeruginosa; P. aeruginosa 101885
  MIC: 1020 µg/mL
P. aeruginosa; P. aeruginosa 114228
  MIC: 512 µg/mL
P. aeruginosa; PA 91433
  MIC: 16 µg/mL
P. aeruginosa; PA 101243
  MIC: 128 µg/mL
P. aeruginosa; PA 114228
  MIC: 512 µg/mL
P. aeruginosa; PAO1, P. aeruginosa PAO1
  MIC: 512 µg/mL
P. aeruginosa; PAO1, PAO1 (wild-type)
  MIC: 512 µg/mL
P. aeruginosa; PAO1, PAO1
  MIC: 512 µg/mL
P. aeruginosa; PAO200 (efflux-deficient)
  MIC: 32 µg/mL
P. aeruginosa; PAO750 (efflux-deficient)
  MIC: 32 µg/mL
A. baumannii; A. baumannii 027
  MIC: 8 µg/mL
A. baumannii; A. baumannii 031
  MIC: 8 µg/mL
A. baumannii; A. baumannii 92247
  MIC: 4 µg/mL
A. baumannii; A. baumannii LAC-4
  MIC: 8 µg/mL
A. baumannii; AB 92247
  MIC: 4 µg/mL
A. baumannii; ATCC17978, A. baumannii ATCC 17978
  MIC: 16 µg/mL
A. baumannii; A. baumannii 110193
  MIC: 256 µg/mL
A. baumannii ATCC 17978; after 3 days of serial passaging
  fold change in MIC: 64 fold
A. baumannii ATCC 17978; after 5 days of serial passaging
  fold change in MIC: 256 fold
P. aeruginosa PAO1
  time-kill outcome: bacterial growth identical to their respective controls
E. coli; ATCC25922, E. coli ATCC 25922
  MIC: 64 µg/mL
E. coli; E. coli 94393
  MIC: 128 µg/mL
E. coli; E. coli 94474
  MIC: 256 µg/mL
E. coli; E. coli 107115
  MIC: 128 µg/mL
K. pneumoniae
  MIC of Novobiocin Alone: 256 µg/mL
K. pneumoniae; K. pneumoniae 113250
  MIC: 512 µg/mL
K. pneumoniae; K. pneumoniae 113254
  MIC: 256 µg/mL
K. pneumoniae; K. pneumoniae 116381
  MIC: 1020 µg/mL
E. cloacae; E. cloacae 117029
  MIC: 1020 µg/mL
E. cloacae; E. cloacae 118568
  MIC: 1020 µg/mL
E. cloacae; E. cloacae 121187
  MIC: 64 µg/mL
E. cloacae; EC 118568
  MIC: 1020 µg/mL
MDR A. baumannii
  mortality of infected larvae: 100%
